Data published in US20260285853A1, “COMPOUNDS AND METHODS FOR MODULATING SPLICING” (REMIX THERAPEUTICS INC., priority 2023, published 2026).
Structures can show the parent of a compound that is named as a salt. Where two headings read alike, the source gives them in different places.

Legend:
Format in all cases: cell-based
[1] = system: SH-SY5Y (human neuroblastoma) cells; assay: Cell viability, Cell Titer Glo 2.0 assay; conditions: read-out: Viability SHSY5Y.3 GI50
Outline: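 Viability was read by CellTiter-Glo 2.0 luminescence after a 72-hour compound exposure at 37° C. under 5% CO2. Cells were in IMDM plus 10% FBS containing 0.1% DMSO, and medium-only wells gave the blank.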

HTT mRNA [2] = assay: Gene panel canonical junction qPCR assay, decrease in CJ mRNA, Table 3
Outline: (§1)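 IC50 denotes the concentration giving 50% decrease in canonical-junction mRNA, fitted by 4-parameter logistic to percentage response derived from ΔΔCt versus housekeeping gene and DMSO control. Cells (A673 or K562) exposed 24 h to 11-point 3-fold serial dilutions from 10 uM top, DMSO ≤0.25%; junction-spanning primer/probe qPCR.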

MYB mRNA [3] = assay: as above
Outline: as §1

HTT mRNA [4] = assay: Splicing RT-qPCR assay (THP), Table 2A
MYB mRNA [5] = assay: Splicing RT-qPCR assay (THP), Table 2A
[6] = decrease in CJ mRNA levels, canonical junction qPCR, gene panel
[7] = Table 2A, THP, HTT alternative junction (AJ) mRNA, read-out: HTT AJ (AC50, increase in alternative junction mRNA)
[8] = Table 2A, THP, HTT canonical junction (CJ) mRNA, read-out: HTT CJ (IC50, decrease in canonical junction mRNA)
[9] = Table 2A, THP, MYB alternative junction (AJ) mRNA, read-out: MYB AJ (AC50, increase in alternative junction mRNA)
[10] = Table 2A, THP, MYB canonical junction (CJ) mRNA, read-out: MYB CJ (IC50, decrease in canonical junction mRNA)
[11] = decrease in canonical junction (CJ) mRNA, gene panel qPCR, Table 3
[12] = Table 2A (THP), AJ mRNA increase, read-out: HTT AJ (increase in alternative junction mRNA, AC50)
[13] = Table 2A (THP), CJ mRNA decrease, read-out: HTT CJ (decrease in canonical junction mRNA, IC50)
[14] = Table 2A (THP), AJ mRNA increase, read-out: MYB AJ (increase in alternative junction mRNA, AC50)
[15] = Table 2A (THP), CJ mRNA decrease, read-out: MYB CJ (decrease in canonical junction mRNA, IC50)

Row | GI50 [1] [nM] | IC50 (HTT mRNA [2]; [6]) [nM] | IC50 (MYB mRNA [3]; [6]) [nM] | IC50 (HTT mRNA [4]; [8]) [nM] | IC50 (MYB mRNA [5]; [10]) [nM] | IC50 (HTT mRNA [2]; [11]) [nM] | IC50 (MYB mRNA [3]; [11]) [nM] | IC50 (HTT mRNA [4]; [13]) [nM] | IC50 (MYB mRNA [5]; [15]) [nM] | Structure (SMILES) | AC50 (HTT mRNA [4]; [7]) [nM] | AC50 (MYB mRNA [5]; [9]) [nM] | AC50 (HTT mRNA [4]; [12]) [nM] | AC50 (MYB mRNA [5]; [14]) [nM]
1 | 100 to 1000 | 1000 to 10000 | 100 to 1000 | 1000 to 10000 | 100 to 1000 |  |  |  |  | COCc1cc2c(N3CCC(NC4CC4)CC3)ccc(C(=O)Nc3cc4cn(C)nc4cc3OC)n2n1 [Compound 621, 4-[4-(cyclopropylamino)-1-piperidyl]-2-(methoxymethyl)-N-(6-methoxy-2-methyl-indazol-5-yl)-pyrazolo[1,5-a]-pyridine-7-carboxamide] | 100 to 1000 | < 100 |  | 
2 | 100 to 1000 | 100 to 1000 | < 100 | 100 to 1000 | < 100 |  |  |  |  | CCNC1CCN(c2cc(Br)c(C(=O)Nc3cn4cc(C)nc4c(F)c3OC)c3nn(C)cc23)CC1 [Compound 723] | 100 to 1000 | < 100 |  | 
3 | 1000 to 10000 |  |  |  |  | > 10000 | > 10000 | > 10000 | > 10000 | Cc1cn2cc(NC(=O)c3ccc(N4CCC(NC5CC5)CC4)c4cn(C)nc34)nc2c(-c2cnoc2)n1 [Compound 462, 4-[4-(cyclopropylamino)-1-piperidyl]-N-(8-isoxazol-4-yl-6-methyl-imidazo[1,2-a]-pyrazin-2-yl)-2-methyl-indazole-7-carboxamide] |  |  | > 10000 | > 10000
4 | > 10000 | > 10000 | > 10000 | > 10000 | > 10000 |  |  |  |  | Cc1cn2cc(NC(=O)c3ccc(N4CCC(NC5CC5)CC4)c4cn(C)nc34)nc2c(CNS(=O)(=O)CCO)n1 [Compound 752, 4-[4-(cyclopropylamino)-1-piperidyl]-N-[8-[(2-hydroxyethylsulfonylamino)methyl]-6-methyl-imidazo[1,2-a]pyrazin-2-yl]-2-methyl-indazole-7-carboxamide] | > 10000 | > 10000 |  | 
5 | 100 to 1000 | 100 to 1000 | < 100 | 100 to 1000 | < 100 |  |  |  |  | COc1cc2c(N3CCC(NC4CC4)CC3)ccc(C(=O)Nc3cc(CO)c4nn(C)cc4c3)n2n1 [Compound 847] | 100 to 1000 | < 100 |  | 
6 | 1000 to 10000 |  |  |  |  | > 10000 | 100 to 1000 | > 10000 | 100 to 1000 | CCNC1CCN(c2ccc(C(=O)Nc3cn4cc(CF)nc(C)c4n3)c3nn(C)cc23)CC1 [Compound 350, 4-[4-(ethylamino)-1-piperidyl]-N-[6-(fluoromethyl)-8-methyl-imidazo[1,2-a]pyrazin-2-yl]-2-methyl-indazole-7-carboxamide 2,2,2-trifluoroacetic acid] |  |  | > 10000 | 100 to 1000
7 | < 100 | < 100 | < 100 | < 100 | < 100 |  |  |  |  | COc1cc2c(N3CCC(NC4CC4)CC3)ccc(C(=O)Nc3cc(F)c4nc(C)cn4c3)n2n1 [Compound 689, 4-[4-(cyclopropylamino)-1-piperidyl]-N-(8-fluoro-2-methyl-imidazo[1,2-a]pyridin-6-yl)-2-methoxy-pyrazolo[1,5-a]pyridine-7-carboxamide] | 100 to 1000 | < 100 |  | 
8 | > 10000 |  |  |  |  | > 10000 | > 10000 | > 10000 | > 10000 | CCNC1CCN(c2ccc(C(=O)Nc3cn4cc(CC)nc(C)c4n3)c3nn(C)cc23)CC1 [Compound 311, N-(6-ethyl-8-methylimidazo [1,2-a]pyrazin-2-yl)-4-(4-(ethylamino)piperidin-1-yl)-2-methyl-2H-indazole-7-carboxamide 2,2,2-trifluoroacetate] |  |  | > 10000 | > 10000
9 | 1000 to 10000 |  |  |  |  | > 10000 | > 10000 | > 10000 | > 10000 | COCCNc1cc(N2CCC(NC3CC3)CC2)c2cn(C)nc2c1C(=O)Nc1cc2cn(C)nc2cc1OC [Compound 442, 4-[4-(cyclopropylamino)-1-piperidyl]-6-(2-methoxyethylamino)-N-(6-methoxy-2-methyl-indazol-5-yl)-2-methyl-indazole-7-carboxamide] |  |  | > 10000 | > 10000
10 | 1000 to 10000 |  |  |  |  | 1000 to 10000 | 100 to 1000 | 1000 to 10000 | 100 to 1000 | Cc1cn2cc(NC(=O)c3ccc(N4CCC(N[C@@H]5C[C@@H]5O)CC4)c4cn(C)nc34)cc(F)c2n1 [Compound 371, N-(8-fluoro-2-methyl-imidazo-[1,2-a]pyridin-6-yl)-4-(4-(((1R,2S)-2-hydroxy-cyclopropyl)-amino)piperidin-1-yl)-2-methyl-2H-indazole-7-carboxamide hydrochloride] |  |  | 1000 to 10000 | < 100
11 | 100 to 1000 | 1000 to 10000 | < 100 | 1000 to 10000 | < 100 |  |  |  |  | COc1nc2c(C(=O)Nc3cc(C)c4nc(C)cn4n3)ccc(N3C[C@H](C)N[C@@H](C)C3)c2s1 [Compound 739, N-(2,8-dimethylimidazo[1,2-b]pyridazin-6-yl)-7-[(3S,5S)-3,5-dimethylpiperazin-1-yl]-2-methoxy-1,3-benzothiazole-4-carboxamide] | 100 to 1000 | < 100 |  | 
12 | 1000 to 10000 | > 10000 | 100 to 1000 | > 10000 | 100 to 1000 |  |  |  |  | COc1nc2c(C(=O)Nc3cc(F)c4nn(C)cc4c3)ccc(N3C[C@@H](C)NC4(CC4)C3)c2s1 [Compound 788] | > 10000 | < 100 |  | 
13 | > 10000 |  |  |  |  | 1000 to 10000 | 1000 to 10000 | 1000 to 10000 | 1000 to 10000 | COc1cc2nn(C)cc2cc1NC(=O)c1ccc(NC2CCCNCC2)c2cn(C)nc12 (centres unmarked) [Compound 547] |  |  | 1000 to 10000 | 1000 to 10000
14 | 100 to 1000 | 100 to 1000 | < 100 | 100 to 1000 | < 100 |  |  |  |  | COc1nc2c(C(=O)Nc3cc(F)c4nn(C)cc4c3)ccc(N3CCN4CCC[C@H]4C3)c2s1 [Compound 745, 7-[(8aS)-3,4,6,7,8,8a-hexahydro-1H-pyrrolo[1,2-a]pyrazin-2-yl]-N-(7-fluoro-2-methyl-indazol-5-yl)-2-methoxy-1,3-benzothiazole-4-carboxamide] | 100 to 1000 | < 100 |  | 
15 | 100 to 1000 |  |  |  |  | 1000 to 10000 | 100 to 1000 | 1000 to 10000 | 100 to 1000 | COc1cc2nn(C)cc2cc1NC(=O)c1ccc(N2CCC(NC3CC3)CC2)c2cn(C)nc12 [Compound 444, 4-[4-(cyclopropylamino)-1-piperidyl]-N-(6-methoxy-2-methyl-indazol-5-yl)-2-methyl-indazole-7-carbox-amide] |  |  | 1000 to 10000 | < 100
16 | 1000 to 10000 |  |  |  |  | > 10000 | 1000 to 10000 | > 10000 | 1000 to 10000 | CNC1CCN(c2ccc(C(=O)Nc3cn4cc(C)nc(C)c4c3F)c3nn(C)cc23)CC1 [Compound 581, N-(8-fluoro-1,3-dimethyl-pyrrolo[1,2-a]-pyrazin-7-yl)-2-methyl-4-[4-(methylamino)-1-piperidyl]indazole-7-carboxamide] |  |  | > 10000 | 1000 to 10000
17 | > 10000 | 1000 to 10000 | 1000 to 10000 | 1000 to 10000 | 1000 to 10000 |  |  |  |  | Cc1cn2cc(NC(=O)c3ccc(NC(=O)C4CCCN4)c4[nH]cnc34)cc(F)c2n1 (centres unmarked) [Compound 613, N-(8-fluoro-2-methyl-imidazo[1,2-a]pyridin-6-yl)-7-(pyrrolidine-2-carbonylamino)-1H-benzimidazole-4-carboxamide] | > 10000 | 1000 to 10000 |  | 
18 | 1000 to 10000 | > 10000 | 100 to 1000 | > 10000 | 100 to 1000 |  |  |  |  | COc1nc2c(C(=O)Nc3cc4cn(C)nc4cc3OC)ccc(N3C[C@H](C)N[C@@H](C)C3)c2s1 [Compound 671, 7-[(3S,5S)-3,5-dimethyl-piperazin-1-yl]-2-methoxy-N-(6-methoxy-2-methyl-indazol-5-yl)-1,3-benzothiazole-4-carboxamide] | 1000 to 10000 | 100 to 1000 |  | 
19 | 1000 to 10000 | 1000 to 10000 | 1000 to 10000 | 1000 to 10000 | 1000 to 10000 |  |  |  |  | Cc1cn2cc(NC(=O)c3ccc(N4CCC(N(C)C5CC5)CC4)c4cn(C)nc34)nc2c(CNS(C)(=O)=O)n1 [Compound 777] | 1000 to 10000 | 1000 to 10000 |  | 
20 | > 10000 |  |  |  |  | > 10000 | > 10000 | > 10000 | > 10000 | Cc1cn2cc(NC(=O)c3c(C)cc(N4CCC(NC5CC5)CC4)c4cn(C)nc34)nc2c(C)n1 [Compound 473, 4-[4-(cyclopropylamino)-1-piperidyl]-N-(6,8-dimethylimidazo[1,2-a]pyrazin-2-yl)-2,6-dimethyl-indazole-7-carboxamide] |  |  | > 10000 | > 10000
